Columns and labels:
Experiment in all cases: Post-emergence efficacy, glasshouse spray test
Assay type in all cases: in vivo
[1] = tested on: Echinochloa crus-galli (ECHCG); details: Echinochloa crus-galli, post-emergence, 312 h, evaluated after 13 days, read-out: Control of weed species after post-emergence application, ECHCG (100=total damage to plant; 0=no damage to plant); for pest or weed control at 500 g/ha: Application Rate 500 g/Ha
Method in brief: (§1)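 Visual damage rating (0 = no damage, 100 = total damage) taken 13 days after a post-emergence spray. Plants had grown 14 days in pots under 24/16° C, 14 h light, 65% humidity before treatment.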

[2] = tested on: Digitaria sanguinalis (DIGSA); details: Digitaria sanguinalis, post-emergence, 312 h, evaluated after 13 days, read-out: Control of weed species after post-emergence application, DIGSA (100=total damage to plant; 0=no damage to plant); for pest or weed control at 500 g/ha: Application Rate 500 g/Ha
Method in brief: as §1

Eleusine indica (ELEIN) = details: Eleusine indica, post-emergence, 312 h, evaluated after 13 days, read-out: Control of weed species after post-emergence application, ELEIN (100=total damage to plant; 0=no damage to plant); for pest or weed control at 500 g/ha: Application Rate 500 g/Ha
Method in brief: as §1

[3] = tested on: Amaranthus palmeri (AMAPA); details: Amaranthus palmeri, post-emergence, 312 h, evaluated after 13 days, read-out: Control of weed species after post-emergence application, AMAPA (100=total damage to plant; 0=no damage to plant); for pest or weed control at 500 g/ha: Application Rate 500 g/Ha
Method in brief: as §1

[4] = tested on: Chenopodium album (CHEAL); details: Chenopodium album, post-emergence, 312 h, evaluated after 13 days, read-out: Control of weed species after post-emergence application, CHEAL (100=total damage to plant; 0=no damage to plant); for pest or weed control at 500 g/ha: Application Rate 500 g/Ha
Method in brief: as §1

[5] = tested on: Euphorbia heterophylla (EPHHL); details: Euphorbia heterophylla, post-emergence, 312 h, evaluated after 13 days, read-out: Control of weed species after post-emergence application, EPHHL (100=total damage to plant; 0=no damage to plant); for pest or weed control at 500 g/ha: Application Rate 500 g/Ha
Method in brief: as §1

Setaia fabei (SETFA) = details: Setaria faberi, post-emergence, 312 h, evaluated after 13 days, read-out: Control of weed species after post-emergence application, SETFA (100=total damage to plant; 0=no damage to plant); for pest or weed control at 500 g/ha: Application Rate 500 g/Ha
Method in brief: as §1

[6] = tested on: Ipomoea hederacea (IPOHE); details: Ipomoea hederacea, post-emergence, 312 h, evaluated after 13 days, read-out: Control of weed species after post-emergence application, IPOHE (100=total damage to plant; 0=no damage to plant); for pest or weed control at 500 g/ha: Application Rate 500 g/Ha
Method in brief: as §1

Lolium perenne (LOLPE) = details: Lolium perenne, post-emergence, 312 h, evaluated after 13 days, read-out: Control of weed species after post-emergence application, LOLPE (100=total damage to plant; 0=no damage to plant); for pest or weed control at 500 g/ha: Application Rate 500 g/Ha
Method in brief: as §1

Structure (SMILES) | pest or weed control at 500 g/ha [1] [%] | pest or weed control at 500 g/ha [2] [%] | pest or weed control at 500 g/ha (Eleusine indica (ELEIN)) [%] | pest or weed control at 500 g/ha [3] [%] | pest or weed control at 500 g/ha [4] [%] | pest or weed control at 500 g/ha [5] [%] | pest or weed control at 500 g/ha (Setaia fabei (SETFA)) [%] | pest or weed control at 500 g/ha [6] [%] | pest or weed control at 500 g/ha (Lolium perenne (LOLPE)) [%] | pest or weed control at 125 g/ha ([1]; Application Rate 125 g/Ha) [%] | pest or weed control at 125 g/ha ([2]; Application Rate 125 g/Ha) [%] | pest or weed control at 125 g/ha (Eleusine indica (ELEIN); Application Rate 125 g/Ha) [%] | pest or weed control at 125 g/ha ([3]; Application Rate 125 g/Ha) [%] | pest or weed control at 125 g/ha ([4]; Application Rate 125 g/Ha) [%] | pest or weed control at 125 g/ha ([5]; Application Rate 125 g/Ha) [%] | pest or weed control at 125 g/ha (Setaia fabei (SETFA); Application Rate 125 g/Ha) [%] | pest or weed control at 125 g/ha ([6]; Application Rate 125 g/Ha) [%] | pest or weed control at 125 g/ha (Lolium perenne (LOLPE); Application Rate 125 g/Ha) [%]
Cc1nsc(-c2cc[n+](CCS(=O)(=O)[O-])nc2)n1 [Compound A10] | 30 | 50 | 60 | 60 | 80 | 60 | 60 | 50 | 60 | – | – | – | – | – | – | – | – | –
Cn1cnc(-c2cc[n+](CCC(=O)O)nc2)n1 [Compound A51] | 90 | 90 | 70 | 100 | 100 | 90 | 90 | 30 | 60 | – | – | – | – | – | – | – | – | –
O=C(O)CC[n+]1ccc(-c2cnsc2)cn1 [Compound A62] | 0 | 10 | 0 | 0 | 20 | 40 | 0 | 20 | 0 | – | – | – | – | – | – | – | – | –
O=S(=O)([O-])CC[n+]1ccc(-c2ccon2)cn1 [Compound A64] | 80 | 90 | 30 | 100 | 90 | 100 | 80 | 90 | 40 | – | – | – | – | – | – | – | – | –
COC(=O)c1ccccc1C[n+]1ccc(-c2ncco2)cn1 [Compound A95] | 10 | 30 | 10 | 10 | 0 | 30 | 20 | 10 | 0 | – | – | – | – | – | – | – | – | –
O=C(O)CC[n+]1ccc(-c2cnns2)cn1 [Compound A138] | 40 | 60 | 70 | 90 | 40 | 100 | 30 | 70 | 0 | – | – | – | – | – | – | – | – | –
Cn1ccc(-c2cc[n+](CCS(=O)(=O)[O-])nc2)n1 [Compound A2] | – | – | – | – | – | – | – | – | – | 10 | 20 | 10 | 0 | 0 | 30 | 20 | 10 | 0
CC(C[n+]1ccc(-c2ncco2)cn1)C(=O)O (stereo not drawn) [Compound A88] | 80 | 70 | 30 | 100 | 100 | 50 | 60 | 30 | 30 | – | – | – | – | – | – | – | – | –
O=S(=O)([O-])NCC[n+]1ccc(-c2ncco2)cn1 [Compound A73] | 50 | 70 | 70 | 80 | 70 | 50 | 60 | 30 | 10 | – | – | – | – | – | – | – | – | –
Cn1ncnc1-c1cc[n+](CCC(=O)O)nc1 [Compound A27] | 90 | 90 | 50 | 100 | 90 | 90 | 90 | 70 | 30 | – | – | – | – | – | – | – | – | –
COC(=O)CCC[n+]1ccc(-c2ncn(C)n2)cn1 [Compound A121] | 100 | 60 | 50 | 30 | 10 | 40 | 40 | 10 | 10 | – | – | – | – | – | – | – | – | –
O=C(O)CC[n+]1ccc(-c2ncsn2)cn1 [Compound A142, 3-[4-(1,2,4-thiadiazol-3-yl)pyridazin-1-ium-1-yl]propanoic acid 2,2,2-trifluoroacetate] | 100 | 100 | 100 | 100 | 90 | 100 | 90 | 30 | 90 | – | – | – | – | – | – | – | – | –
CS(=O)(=O)[N-]C(=O)C[n+]1ccc(-c2ncco2)cn1 [Compound A72] | 40 | 60 | 80 | 90 | 70 | 70 | 60 | 70 | 40 | – | – | – | – | – | – | – | – | –
COC(=O)C[n+]1ccc(-c2nccs2)cn1 [Compound A120] | 70 | 80 | 90 | 100 | 50 | 70 | 60 | 10 | 0 | – | – | – | – | – | – | – | – | –
Cc1cc(-c2cc[n+](CCS(=O)(=O)[O-])nc2)sn1 [Compound A35] | 50 | 50 | 70 | 100 | 100 | 90 | 60 | 50 | 70 | – | – | – | – | – | – | – | – | –
Cc1coc(-c2cc[n+](CCCS(=O)(=O)[O-])nc2)n1 [Compound A136] | 40 | 70 | 60 | 70 | 30 | 70 | 80 | 20 | 60 | – | – | – | – | – | – | – | – | –

Reference: US20210053957A1, “HERBICIDAL COMPOUNDS” (SYNGENTA PARTICIPATIONS AG, priority 2018, published 2021)
